According to patent publication US8114895B2, “Use of bipyridine compound ‘Caerulomycin A’ derivatives and analogs thereof as immunosuppressive agents” (Council of Science and Industrial Research, priority 2005, dated 2012):
Like-named read-outs stand apart in the source and are kept apart here.

How the values were obtained:
[1] = test system: peritoneal macrophages; assay: Expression of B7-1, B7-2, CD40 and IA^d on peritoneal macrophages by flow cytometry; format: cell-based, BALB/c mice
Description: The expression of B7-1 and B7-2 was detected on the surface of peritoneal macrophages incubated with different concentrations of Caerulomycin A (0.05-0.1 μg/ml). Peritoneal macrophages were harvested from BALB/c mice inoculated 4 days previously with 2-3 ml of thioglycolate. The cells were washed with BSS. The macrophages were obtained by adhering for 1 h at 37° C. on plastic Petri dishes followed by washing several times in cold BSS. The macrophages (1×10^6) were stimulated with 10 μg/ml of LPS for 24, 48 and 72 h in the presence and absence of Caerulomycin A (0.05-0.1 μg/ml) at 37° C. and 7% CO2. Then the cells were harvested and stained with their respective antibodies. Briefly, the cells were centrifuged (1200×g, 4° C., 5 min) and the supernatant was aspirated. The cells were washed 3× with 1% BSA, 0.1% sodium azide in PBS. In the first step, the cells (1×10^6) were incubated with biotinylated anti-mouse B7-1, CD40 and I-A^d (1 μg/100 μl) Abs for 45 min at 4° C. In the next step cells were stained with streptavidin FITC (0.5 μg/100 μl) or PE conjugated anti-mouse B7-2 (0.5 μg/100 μl) Abs and incubated for 45 min. Usual steps of washing were followed at each step. Finally the cells were washed five times and fixed in paraformaldehyde. The stained cells were acquired on a FACScan as mentioned for CD28/CTLA-4. Since the antigen presenting cells express B7-1 and B7-2, which are the ligands of CTLA-4 and CD28. […] The expression of IA^d was detected on the surface of peritoneal macrophages incubated with different concentrations of Caerulomycin A (0.05-0.1 μg/ml). Peritoneal macrophages were harvested from BALB/c mice inoculated 4 days previously with 2-3 ml of thioglycolate. The cells were washed with BSS. The macrophages were obtained by adhering for 1 h at 37° C. on plastic Petri dishes followed by washing several times in cold BSS. The macrophages (1×10^6) were stimulated with 10 μg/ml of LPS for 24, 48 and 72 h in the presence and absence of Caerulomycin A (0.05-0.1 μg/ml) at 37° C. and 7% CO2. Then the cells were harvested and stained with their respective antibodies. Briefly, the cells were centrifuged (1200×g, 4° C., 5 min) and the supernatant was aspirated. The cells were washed 3× with 1% BSA, 0.1% sodium azide in PBS. In the first step, the cells (1×10^6) were incubated with biotinylated anti-mouse I-A^d (1 μg/100 μl) Abs for 45 min at 4° C. In the next step cells were stained with streptavidin FITC (0.5 μg/100 μl) and incubated for 45 min. Usual steps of washing were followed at each step. Finally the cells were washed five times and fixed in paraformaldehyde. The stained cells were acquired on a FACScan as mentioned for CD28/CTLA-4. […] This may indicate that Caerulomycin A may inhibit the processing and presentation of antigen by APC.

[2] = test system: thymocytes; assay: Expression of CD69 on mouse thymocytes; format: cell-based, BALB/c mice; conditions: ConA 1 and 5 μg/ml, 24 h
Description: The expression of CD69 was detected on the surface of thymocytes in the presence of Caerulomycin A. Thymocytes were obtained from 3-4 weeks old BALB/c mice. Thymocytes (4×10^6 cells/well) were stimulated with 1 μg/ml and 5 μg/ml of ConA for 24 h in the presence and absence of Caerulomycin A at 37° C. The cells were stained with PE labeled anti-mouse CD69 Ab. The stained cells were acquired on a FACScan as mentioned in the case of CD28/CTLA-4.

[3] = test system: Th2 clones; assay: Proliferation of Th2 clones; format: cell-based; conditions: stimulated with anti-CD3 Ab or conalbumin pulsed γ-irradiated splenocytes; Caerulomycin A 0.00625-0.1 μg/ml
Description: The proliferation of Th2 clones was measured using cells harvested on 7-9 days after stimulation with antigen pulsed splenocytes. The dead cells were removed by ficoll-histopaque. Th2 clones (5×10^4 cells/well) were either stimulated with anti-CD3 Ab (0.1 μg/ml and 0.5 μg/ml) or incubated with γ-irradiated (3000 R) syngeneic splenocytes (5×10^5 cells/well) and conalbumin (100 μg/ml) in 200 μl RPMI/FCS-10% medium and with various concentrations of Caerulomycin A (0.00625-0.1 μg/ml). The control cultures consisting of Th2 cells incubated with conalbumin alone and γ-irradiated syngeneic splenocytes (no antigen) were also kept. The cultures were kept in a flat bottom 96 well microtitre plate and the cells were incubated at 37° C. and 7% CO2. After 48 h, the cultures were pulsed with 0.5 μCi of [^3H]-thymidine and harvested 16 h later. Radioactivity incorporated was measured by liquid scintillation counting and data are expressed as mean counts per minute (cpm).

[4] = test system: B cells; assay: Secretion of antibodies
[5] = test system: Th2 clones; assay: Kinetics of the effect on the proliferation of Th2 clones; format: cell-based; conditions: anti-CD3 Ab 0.5 μg/ml, read-out: inhibitory effect on Th2 cells
Description: Th2 clones (5×10^4/well) were stimulated with anti-CD3 Ab (0.5 μg/ml). Caerulomycin A (0.05 μg/ml) was added either at the initiation of the cultures (time 0) or at various time points (4 h-48 h) After 48 h of the cultures, [^3H]-thymidine was added, and its incorporation was measured 12 h later.

[6] = LPS 10 μg/ml, Caerulomycin A 0.05-0.1 μg/ml

**Q.** Which “display of B7-2” value [1, 6] does the source give for `COc1cc(/C=N/O)nc(-c2ccccn2)c1` [Caerulomycin A, (E)-4-methoxy-2,2′-bipyridine-6-carbaldehyde oxime] here?
**A.** decreased the display

**Q.** And the “expression of B7-1” value [1, 6]?
**A.** enhanced the expression

**Q.** What about the “expression of IA^d” value [1, 6] of the same compound?
**A.** down regulated the expression

**Q.** What about the “expression of CD40” value ([1]; after 72 h) of the same compound?
**A.** Slight increase in the expression

**Q.** What about the “expression of CD69” value [2] of the same compound?
**A.** no change in the expression

**Q.** And the “proliferation of Th2 clones” value [3]?
**A.** substantially restricted the proliferation

**Q.** And the “secretion of IgG1 type of antibodies” value [4]?
**A.** inhibited the secretion

**Q.** What about the “secretion of IgG2a type of antibodies” value [4] of the same compound?
**A.** inhibited the secretion

**Q.** And the inhibition at 0.05 µg/mL ([5]; 0.05 μg/ml added after 42 h)?
**A.** 56%

**Q.** And the inhibition at 0.05 µg/mL ([5]; 0.05 μg/ml added before 16 h of the initiation of the cultures)?
**A.** 77 to 90%
